Experimental data: US8299074B2, “P38 MAP kinase inhibitors” (RespiVert Ltd., priority 2008, dated 2012)
Like-named read-outs stand apart in the source and are kept apart here.

Assays:
U937 cells [1] = assay: LPS-induced IL-8 release in U937 cells; assay type: cell-based; conditions: Homo sapiens, read-out: DU937 (LPS) IL-8 IC50
Method: (§1) LPS-Induced TNF Alpha/IL-8 Release in U937 Cells: Potency U937 cells, human monocytic cell line, were differentiated to macrophage-type cells by incubation with phorbol myristate acetate (PMA; 100 ng/ml) for 48 to 72 hours. Cells were pre-incubated with final concentrations of compound for 2 hrs. […] Coli: O111:B4, Sigma) for 4 hrs, and the supernatant collected for determination of TNFα and IL-8 concentration by sandwich ELISA (Duo-set, R&D systems). […] The inhibition of IL-8 production was calculated at each concentration of test compound by comparison with vehicle control.

U937 cells [2] = assay: LPS-induced TNF alpha release in U937 cells; assay type: cell-based
Method: as §1

BEAS2B cells = assay: Poly I:C-induced ICAM-1 induction in BEAS2B cells; assay type: cell-based; conditions: Homo sapiens, BEAS-2B, read-out: BEAS2B (polyIC) ICAM1 IC50
Method: Poly I:C-Induced ICAM-1 Induction in BEAS2B Cells: Potency Poly I:C (1 ug/ml) (Invivogen Ltd., San Diego, Calif.) was transfected into BEAS2B cells (human bronchial epithelial cells, ATCC) with Oligofectamine (Invitrogen, Carlsbad, Calif.). Cells were pre-incubated with final concentrations of compound for 2 hrs. The level of ICAM1 expression on the cell surface was determined by cell-based ELISA. Briefly, at 18 hrs after poly I:C transfection, cells were fixed with 4% formaldehyde in PBS. After quenching endogenous peroxidase by adding 0.1% sodium azide and 1% hydrogen peroxide, cells were washed with wash-buffer (0.1% Tween in PBS: PBS-Tween). After blocking the wells with 5% milk in PBS-Tween for 1 hr, the cells were incubated with anti-human ICAM-1 antibody (Cell Signaling Technology, Danvers, Mass.) in 1% BSA PBS overnight at 4° C. Cells were washed with PBS-Tween and incubated with the secondary antibody (HRP-conjugated anti-rabbit IgG, Dako Ltd., Glostrup, Denmark). The ICAM-1 signal was detected by adding substrate and reading at 450 nm with a reference wavelength of 655 nm using a spectrophotometer. […] The measured OD 450-655 readings were corrected for cell number by dividing with the OD595 reading in each well.

p38 MAPK alpha (MAPK14) = biological target: T1, p38 MAPK alpha (MAPK14) (Homo sapiens, UniProt Q16539); assay: Enzyme inhibition assay, p38 MAPK alpha (FRET, Z-LYTE, via MAPKAP-K2); assay type: biochemical; conditions: read-out: Enzyme p38α IC50
T1 construct: purchased Invitrogen

THP-1 cells = assay: LPS-induced TNF alpha release in THP-1 cells; assay type: cell-based; conditions: Homo sapiens
Method: LPS-Induced TNF Alpha Release in THP-1 Cells: Potency […] Coli; O111:B4, Sigma) for 4 hr and the supernatant collected for determination of TNFα concentration by sandwich ELISA (Duo-set, R&D systems). The inhibition of TNFα production was calculated at each concentration by comparison with vehicle control.

[3] = system: Differentiated U937 cells; assay: MTT assay (cell viability); assay type: cell-based, human
Method: MTT Assay Differentiated U937 cells were pre-incubated with compound for 4 hrs in 5% FCS or 10% FCS for 24 hrs. […] After 1 hr incubation, the media were removed, 200 ul of DMSO added to each well and the plates were shaken lightly for 1 h prior to reading the absorbance at 550 nm. The percentage loss of cell viability was calculated for each well relative to vehicle (0.5% DMSO)-treatment. Consequently an apparent increase in cell viability for drug treatment relative to vehicle is tabulated as a negative percentage.

[4] = Homo sapiens; read-out: DU937 (LPS) TNFα REC50
[5] = THP-1, Table 3, read-out: THP-1 (LPS) TNFα IC50
[6] = Table 3, first MTT column, loss of cell viability at 1 μg/ml
[7] = Table 3, second MTT column, loss of cell viability at 1 μg/ml
[8] = THP-1, Table 2, read-out: THP-1 (LPS) TNFα IC50
[9] = Table 2, loss of cell viability at 1 μg/ml

T1 sequence (Q16539 whole entry): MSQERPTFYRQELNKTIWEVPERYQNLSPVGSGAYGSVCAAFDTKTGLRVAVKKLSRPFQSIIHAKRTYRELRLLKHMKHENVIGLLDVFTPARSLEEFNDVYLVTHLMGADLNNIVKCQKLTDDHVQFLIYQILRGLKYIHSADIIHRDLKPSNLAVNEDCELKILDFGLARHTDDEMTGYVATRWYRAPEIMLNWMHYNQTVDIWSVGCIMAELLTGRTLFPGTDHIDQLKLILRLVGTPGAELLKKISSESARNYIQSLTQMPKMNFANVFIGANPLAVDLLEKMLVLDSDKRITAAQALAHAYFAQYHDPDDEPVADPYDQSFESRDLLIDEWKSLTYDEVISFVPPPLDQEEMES

| IC50 (U937 cells [1]; Table 3) [nM] | EC50 (U937 cells [2]; [4]) [nM] | IC50 (p38 MAPK alpha (MAPK14); Table 3) [nM] | IC50 (THP-1 cells; [5]) [nM] | IC50 (U937 cells [1]; Table 2) [nM] | IC50 (p38 MAPK alpha (MAPK14); Table 2) [nM] | IC50 (THP-1 cells; [8]) [nM] | SMILES | IC50 (BEAS2B cells; Table 3) [nM] | DU937 (cell viability) MTT assay 4 h [3, 6] | DU937 (cell viability) MTT assay 4 h [3, 7] | IC50 (BEAS2B cells; Table 2) [nM] | DU937 (cell viability) MTT assay 4 h [3, 9] | DU937 (cell viability) MTT assay 24 h [3, 9] | other results |
| --- | --- | --- | --- | --- | --- | --- | --- | --- | --- | --- | --- | --- | --- | --- |
| < 5000 | < 5000 | < 5000 | < 10 |  |  |  | COCCNC(=O)Nc1cc(Oc2ccc(NC(=O)Nc3cc(C(C)(C)C)nn3-c3ccc(C)cc3)c3ccccc23)ccn1 [Example 34, 1-(3-(tert-Butyl)-1-(p-tolyl)-1H-pyrazol-5-yl)-3-(4-((2-(3-(2-methoxyethyl)ureido)pyridin-4-yl)oxy)naphthalen-1-yl)urea] | < 5000 |  |  |  |  |  | DU937 (cell viability) MTT assay 4 h ([3]; Table 3, first MTT column, loss of cell viability, test conducted at 10 μg/ml): −^ ^$ (<=30%); DU937 (cell viability) MTT assay 4 h ([3]; Table 3, second MTT column, loss of cell viability, test conducted at 10 μg/ml): +^$ (>30%) |
| < 10 | < 10 | < 10 | < 10 |  |  |  | CC(=O)N1CCC(NC(=O)Nc2cc(Oc3ccc(NC(=O)Nc4cc(C(C)(C)C)nn4-c4ccc(C)cc4)c4ccccc34)ccn2)CC1 [Example 39, N-Acetyl 4-(3-(4-(4-(3-(3-tert-butyl-1-p-tolyl-1H-pyrazol-5-yl)ureido)naphthalen-1-yloxy)pyridin-2-yl)ureido)piperidine] | < 5000 | − (<=30%) | + (>30%) |  |  |  |  |
| < 10 | < 10 | < 10 | < 10 |  |  |  | Cc1ccc(-n2nc(C(C)(C)C)cc2NC(=O)Nc2ccc(Oc3ccnc(NC(=O)NCCCCN4CCOCC4)c3)c3ccccc23)cc1 [Example 47, N-(4-(Morpholin-4-yl)butyl)-N′-4-(4-(3-(3-tert-butyl-1-p-tolyl-1H-pyrazol-5-yl)ureido)naphthalen-1-yloxy)pyridin-2-ylurea] | < 10 | − (<=30%) | − (<=30%) |  |  |  |  |
| < 10 | < 10 | < 5000 | < 10 |  |  |  | Cc1ccc(-n2nc(C(C)(C)C)cc2NC(=O)Nc2ccc(Oc3ccnc(NC(=O)NCCCn4ccnc4)c3)c3ccccc23)cc1 [Example 52, N-(3-(Imidazol-1-yl)propyl)-N′-4-(4-(3-(3-tert-butyl-1-p-tolyl-1H-pyrazol-5-yl)ureido)naphthalen-1-yloxy)pyridin-2-ylurea] | < 10 | − (<=30%) | − (<=30%) |  |  |  |  |
| < 5000 | < 10 | < 5000 | < 10 |  |  |  | CNC(=O)Nc1cc(Oc2ccc(NC(=O)Nc3cc(C(C)(C)C)nn3-c3ccc(C)cc3)c3ccccc23)ccn1 [Example 36] | < 10 | − (<=30%) | − (<=30%) |  |  |  |  |
|  | < 10 |  |  | < 5000 | < 10 | < 10 | COCC(=O)Nc1cc(Oc2ccc(NC(=O)Nc3cc(C(C)C)nn3-c3ccc(C)cc3)c3ccccc23)ccn1 [Example 6, N-(4-(4-(3-(3-Isopropyl-1-p-tolyl-1H-pyrazol-5-yl)ureido)naphthalen-1-yloxy)pyridin-2-yl)-2-methoxyacetamide] |  |  |  | < 5000 | − (<=30%) | − (<=30%) |  |
| < 10 | < 10 | < 10 | < 10 |  |  |  | Cc1ccc(-n2nc(C(C)(C)C)cc2NC(=O)Nc2ccc(Oc3ccnc(NC(=O)N4CCN(C)CC4)c3)c3ccccc23)cc1 [Example 43, N-(4-((4-(3-(3-(tert-Butyl)-1-(p-tolyl)-1H-pyrazol-5-yl)ureido)naphthalen-1-yl)oxy)pyridin-2-yl)-4-methylpiperazine-1-carboxamide] | < 10 | − (<=30%) | − (<=30%) |  |  |  |  |

Further lines, the compound ahead of its results:

| SMILES | IC50 (U937 cells [1]; Table 3) [nM] | EC50 (U937 cells [2]; [4]) [nM] | IC50 (p38 MAPK alpha (MAPK14); Table 3) [nM] | IC50 (THP-1 cells; [5]) [nM] | IC50 (U937 cells [1]; Table 2) [nM] | IC50 (p38 MAPK alpha (MAPK14); Table 2) [nM] | IC50 (THP-1 cells; [8]) [nM] | IC50 (BEAS2B cells; Table 3) [nM] | DU937 (cell viability) MTT assay 4 h [3, 6] | DU937 (cell viability) MTT assay 4 h [3, 7] | IC50 (BEAS2B cells; Table 2) [nM] | DU937 (cell viability) MTT assay 4 h [3, 9] | DU937 (cell viability) MTT assay 24 h [3, 9] | other results |
| --- | --- | --- | --- | --- | --- | --- | --- | --- | --- | --- | --- | --- | --- | --- |
| Cc1ccc(-n2nc(C(C)(C)C)cc2NC(=O)Nc2ccc(Oc3ccnc(NC(=O)NC4CCN(C)CC4)c3)c3ccccc23)cc1 [Example 50, N-(1-Methyl)piperidin-4-yl-N′-4-(4-(3-(3-tert-butyl-1-p-tolyl-1H-pyrazol-5-yl)ureido)naphthalen-1-yloxy)pyridin-2-ylurea] |  |  | < 10 |  |  |  |  |  | − (<=30%) | + (>30%) |  |  |  | IC50 (U937 cells [1]): < 10 nM; EC50 (U937 cells [2]; Homo sapiens, read-out: DU937 (LPS) TNFα REC50): < 10 nM; IC50 (BEAS2B cells): < 10 nM; IC50 (THP-1 cells; THP-1, read-out: THP-1 (LPS) TNFα IC50): < 10 nM |
| Cc1ccc(-n2nc(C(C)(C)C)cc2NC(=O)Nc2ccc(Oc3ccnc(NC(=O)N(C)C)n3)c3ccccc23)cc1 [Example 68, 1,1-Dimethyl-3-(4-(4-(3-(3-tert-butyl-1-p-tolyl-1H-pyrazol-5-yl)ureido)naphthalen-1-yloxy)pyrimidin-2-yl)urea] |  | < 10 |  |  |  |  |  |  |  |  |  |  |  | IC50 (U937 cells [1]; Table 1): < 10 nM; IC50 (BEAS2B cells; Table 1): < 10 nM; IC50 (p38 MAPK alpha (MAPK14); Table 1): < 10 nM; IC50 (THP-1 cells; THP-1, Table 1, read-out: THP-1 (LPS) TNFα IC50): < 5000 nM; DU937 (cell viability) MTT assay 4 h ([3]; Table 1, MTT, loss of cell viability at 1 μg/ml): − (<=30%); DU937 (cell viability) MTT assay 4 h ([3]; Table 1, first MTT column, loss of cell viability at 1 μg/ml): − (<=30%) |
| Cc1ccc(-n2nc(C(C)(C)C)cc2NC(=O)Nc2ccc(Oc3ccnc(NC(=O)N4CCCC4)c3)c3ccccc23)cc1 [Example 55, N-(4-(4-(3-(3-tert-Butyl-1-p-tolyl-1H-pyrazol-5-yl)ureido)naphthalen-1-yloxy)pyridin-2-yl)pyrrolidine-1-carboxamide] | < 10 | < 10 | < 10 | < 10 |  |  |  | < 10 | − (<=30%) | − (<=30%) |  |  |  |  |
| Cc1ccc(-n2nc(C(C)(C)C)cc2NC(=O)Nc2ccc(Oc3ccnc(NC(=O)CNC(N)=O)c3)c3ccccc23)cc1 [Example 14, N-(4-(4-(3-(3-tert-Butyl-1-p-tolyl-1H-pyrazol-5-yl)ureido)naphthalen-1-yloxy)pyridin-2-yl)-2-ureidoacetamide] |  | < 5000 |  |  | < 5000 | < 10 | < 5000 |  |  |  | < 5000 | − (<=30%) | − (<=30%) |  |
| Cc1ccc(-n2nc(C(C)(C)C)cc2NC(=O)Nc2ccc(Oc3ccnc(NC(=O)CNC(=O)CCN4CCOCC4)c3)c3ccccc23)cc1 [Example 19, N-(2-(4-(4-(3-(3-tert-Butyl-1-p-tolyl-1H-pyrazol-5-yl)ureido)naphthalen-1-yloxy)pyridin-2-ylamino)-2-oxoethyl)-3-morpholinopropanamide] |  | < 10 |  |  | < 10 | < 10 | < 10 |  |  |  | < 10 | − (<=30%) | + (>30%) |  |
| CCc1cc(NC(=O)Nc2ccc(Oc3ccnc(NC(=O)COC)c3)c3ccccc23)n(-c2ccc(C)cc2)n1 [Example 7, N-(4-(4-(3-(3-Ethyl-1-p-tolyl-1H-pyrazol-5-yl)ureido)naphthalen-1-yloxy)pyridin-2-yl)-2-methoxyacetamide] |  | < 10 |  |  | < 10 | < 10 | < 10 |  |  |  | < 5000 | − (<=30%) | − (<=30%) |  |
